Biological target: PKBα (Homo sapiens, UniProt P31749)
Assay: PKB kinase assay (P33-labeled ATP, peptide substrate, filter plate)
Format: biochemical
Details: PKBα enzyme (full length or kinase domain with pleckstrin domain deleted)
From the text: The kinase assay for evaluating PKB activity comprises active PKB enzymes, a PKB specific substrate, and P^33-labeled ATP. […] The phosphorylated substrate was captured by a phosphocellulose membrane filter plate (MLLIPORE) and measured by a Wallac Microbeta liquid scintillation counter (Perkin Elmer).

PKBα, sequence (P31749 118-480 limits assumed): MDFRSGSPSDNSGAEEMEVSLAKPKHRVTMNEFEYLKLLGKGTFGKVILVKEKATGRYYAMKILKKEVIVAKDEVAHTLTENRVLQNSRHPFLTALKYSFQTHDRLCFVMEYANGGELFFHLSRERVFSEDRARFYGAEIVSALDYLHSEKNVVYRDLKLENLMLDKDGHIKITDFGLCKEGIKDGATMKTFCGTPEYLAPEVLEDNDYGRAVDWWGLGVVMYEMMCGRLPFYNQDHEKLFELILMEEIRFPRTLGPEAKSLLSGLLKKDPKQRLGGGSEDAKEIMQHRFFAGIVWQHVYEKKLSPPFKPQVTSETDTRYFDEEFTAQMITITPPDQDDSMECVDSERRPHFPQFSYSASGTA

| IC50 [nM] | SMILES |
| --- | --- |
| 50 to 1000 | COc1ccc(C[C@H](N)CNc2ncc(-c3nc4ccncc4s3)s2)cc1 [Example 98, N—((S)-2-Amino-3-(4-methoxyphenyl)propyl)-5-(thiazolo[5,4-c]pyridin-2-yl)thiazol-2-amine] |
| 50 to 1000 | C[C@@H](c1ccc(C(F)(F)F)cc1)[C@H](N)CNc1ncc(-c2ccc3c(c2)C2(CC2)C(=O)N3)s1 [Example 200, 5′-(2-((2S,3S)-2-amino-3-(4-(trifluoromethyl)phenyl)butylamino)thiazol-5-yl)spiro[cyclopropane-1,3′-indol]-2′(1′H)-one] |
| < 50 | CC(O)C#Cc1nc(NC[C@@H](N)Cc2ccc(C(F)(F)F)cc2)sc1-c1ccc2c(c1)CC(=O)N2 (stereo partly drawn) [Example 144, 5-(2-((S)-2-amino-3-(4-(trifluoromethyl)phenyl)propylamino)-4-(3-hydroxybut-1-ynyl)thiazol-5-yl)indolin-2-one] |
| 50 to 1000 | N[C@H](CNc1nc(-c2ccc(F)c(F)c2)c(-c2ccc3cnccc3c2)s1)Cc1ccc(C(F)(F)F)cc1 [Example 101, N—((S)-2-Amino-3-(4-(trifluoromethyl)phenyl)propyl)-4-(3,4-difluorophenyl)-5-(isoquinolin-6-yl)thiazol-2-amine] |
| 50 to 1000 | N[C@H](CNc1ncc(-c2ccc3cnccc3c2)s1)Cc1c[nH]c2ccccc12 [Example 5, N—((S)-2-amino-3-(1H-indol-3-yl)propyl)-5-(isoquinolin-6-yl)thiazol-2-amine] |
| 50 to 1000 | Cc1n[nH]c2ccc(-c3cnc(NC[C@@H](N)Cc4ccccc4)s3)cc12 [Example 1, N—((S)-2-amino-3-phenylpropyl)-5-(3-methyl-1H-indazol-5-yl)thiazol-2-amine] |
| 1000 to 10000 | COCc1nc(N(C[C@@H](N)Cc2cccc(Cl)c2)C(C)=O)sc1-c1nc2ccncc2s1 [Example 17, N—((S)-2-amino-3-(3-chlorophenyl)propyl)-N-(4-(methoxymethyl)-5-(thiazolo[5,4-c]pyridin-2-yl)thiazol-2-yl)acetamide] |
| 1000 to 10000 | N[C@H](CNc1ncc(-c2ccc3c(c2)CC(=O)N3)s1)Cc1c[nH]c2ccccc12 [Example 74, 5-(2-((S)-2-amino-3-(1H-indol-3-yl)propylamino)thiazol-5-yl)indolin-2-one ditrifluoroacetate] |
| < 50 | COC[C@@H](c1ccc(C(F)(F)F)cc1)[C@H](N)CNc1ncc(-c2ccc3c(c2)CC(=O)N3)s1 [Example 241, 5-(2-((2S,3S)-2-amino-4-methoxy-3-(4-(trifluoromethyl)phenyl)butylamino)thiazol-5-yl)indolin-2-one] |
| < 50 | CC#Cc1nc(NC[C@@H](N)Cc2ccc(C(F)(F)F)cc2)sc1-c1ccc2c(c1)CC(=O)N2 [Example 152, 5-(2-((S)-2-amino-3-(4-(trifluoromethyl)phenyl)propylamino)-4-(prop-1-ynyl)thiazol-5-yl)indolin-2-one] |
| 1000 to 10000 | Cn1nc(N)c2ccc(-c3cnc(NC[C@@H](N)Cc4ccc(C(F)(F)F)cc4)s3)cc21 [Example 53, 6-(2-((S)-2-amino-3-(4-(trifluoromethyl)phenyl)propylamino)thiazol-5-yl)-1-methyl-1H-indazol-3-amine] |
| < 50 | COc1cc(C[C@H](N)CNc2ncc(-c3ccc4cnccc4c3)s2)cnc1C(F)(F)F [Example 173] |

Second part, the molecule before the results:

| SMILES | IC50 [nM] |
| --- | --- |
| C[C@H](Nc1ncc(-c2ccc3c(c2)CC(=O)N3)s1)[C@@H](N)Cc1ccc(C(F)(F)F)cc1 [Example 234, 5-(2-((2S,3S)-3-amino-4-(4-(trifluoromethyl)phenyl)butan-2-ylamino)thiazol-5-yl)indolin-2-one] | 1000 to 10000 |
| CC1C(=O)Nc2ccc(-c3cnc(NC[C@@H](N)Cc4ccccc4)s3)cc21 (stereo partly drawn) [Example 70, 5-(2-((S)-2-amino-3-phenylpropylamino)thiazol-5-yl)-3-methylindolin-2-one] | 1000 to 10000 |
| N[C@H](CNc1nc(Br)c(-c2nc3ccncc3s2)s1)Cc1ccc(C(F)(F)F)cc1 [Example 111, N—((S)-2-Amino-3-(4-(trifluoromethyl)phenyl)propyl)-4-bromo-5-(thiazolo[5,4-c]pyridin-2-yl)thiazol-2-amine] | 50 to 1000 |
| N[C@H](CNc1ncc(-c2cc(F)c3c(c2)CC(=O)N3)s1)Cc1ccc(C(F)(F)F)cc1 [Example 220, 5-(2-((S)-2-amino-3-(4-(trifluoromethyl)phenyl)propylamino)thiazol-5-yl)-7-fluoroindolin-2-one] | < 50 |
| N[C@H](CNc1ncc(-c2ccc3[nH]ncc3c2)s1)Cc1ccc(Cl)cc1 [Example 4, N—((S)-2-amino-3-(4-chlorophenyl)propyl)-5-(1H-indazol-5-yl)thiazol-2-amine] | < 50 |
| COCc1nc(NC[C@@H](N)Cc2ccc(C(F)(F)F)cc2)sc1-c1ccc2[nH]ncc2c1 [Example 14, N—((S)-2-amino-3-(4-(trifluoromethyl)phenyl)propyl)-5-(1H-indazol-5-yl)-4-(methoxymethyl)thiazol-2-amine] | < 50 |
| COCc1nc(N(C[C@@H](N)Cc2ccc(Cl)cc2)C(C)=O)sc1-c1nc2ccncc2s1 [Example 25, N—((S)-2-amino-3-(4-chlorophenyl)propyl)-N-(4-(methoxymethyl)-5-(thiazolo[5,4-c]pyridin-2-yl)thiazol-2-yl)acetamide] | 50 to 1000 |
| N[C@H](CNc1ncc(-c2ccc3[nH]c(=O)oc3c2)s1)Cc1ccc(C(F)(F)F)c(O)c1 [Example 210] | < 50 |
| N#Cc1ccc(-c2cnc(NC[C@@H](N)Cc3ccc(C(F)(F)F)cc3)s2)cc1F [Example 166, 4-(2-((S)-2-amino-3-(4-(trifluoromethyl)phenyl)propylamino)thiazol-5-yl)-2-fluorobenzonitrile] | 50 to 1000 |
| CC(O)C#Cc1nc(NC[C@@H](N)Cc2ccc(C(F)(F)F)cc2)sc1-c1ccc2cnccc2c1 (stereo partly drawn) [Example 141, 4-(2-((S)-2-amino-3-(4-(trifluoromethyl)phenyl)propylamino)-5-(isoquinolin-6-yl)thiazol-4-yl)but-3-yn-2-ol] | < 50 |
| N[C@H](CNc1ncc(-c2ccc3c(c2)CC(=O)N3)s1)Cc1ccc(C(F)(F)F)nc1 [Example 171, 5-(2-((S)-2-amino-3-(6-(trifluoromethyl)pyridine-3-yl)propylamino)thiazol-5-yl)indolin-2-one] | < 50 |
| Cn1c(=O)[nH]c2ccc(-c3cnc(NCC(N)Cc4ccc(C(F)(F)F)c(F)c4F)s3)cc21 (stereo not drawn) [Example 191, 6-(2-(2-amino-3-(2,3-difluoro-4-(trifluoromethyl)phenyl)propylamino)thiazol-5-yl)-1-methyl-1H-benzo[d]imidazol-2(3H)-one] | 50 to 1000 |
| N[C@H](CNc1ncc(-c2cc(F)c3c(c2)CC(=O)N3)s1)Cc1ccc(C(F)(F)F)nc1 [Example 221, 5-(2-((S)-2-amino-3-(6-(trifluoromethyl)pyridin-3-yl)propylamino)thiazol-5-yl)-7-fluoroindolin-2-one] | < 50 |
| Cn1c(=O)[nH]c2ccc(-c3cnc(NC[C@@H](N)Cc4cc(F)cc(F)c4)s3)cc21 [Example 162, 6-(2-((S)-2-amino-3-(3,5-difluorophenyl)propylamino)thiazol-5-yl)-1-methyl-1H-benzo[d]imidazol-2(3H)one] | 1000 to 10000 |
| COc1cc(C[C@H](N)CNc2ncc(-c3ccc4c(c3)CNC4=O)s2)cnc1C(F)(F)F [Example 238, 5-(2-((S)-2-amino-3-(5-methoxy-6-(trifluoromethyl)pyridin-3-yl)propylamino)thiazol-5-yl)isoindolin-1-one] | 50 to 1000 |
